We go through 9 compounds from PubChem BioAssay (NCI).

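Cultured in 96-well plates, cells were exposed to test compound for 48 hours across five concentrations. TGI: total growth inhibition.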 Some results are limits rather than exact numbers.

Some test systems named below: RPMI-8226 leukemia; RXF 393 renal; TK-10 renal; NCI-H23 lung; LOX IMVI melanoma; SF-268 CNS; HT29 colon; M14 melanoma; A498 renal; OVCAR-3 ovarian; OVCAR-5 ovarian; CCRF-CEM leukemia; ACHN renal; SNB-75 CNS; IGROV1 ovarian; SR leukemia; SN12C renal.
What all share (experiment): growth of human tumour cells (NCI), 48 h

Take `COc1ccc(Cc2c3cc(OC)c(OC)cc3cc[n+]2C)cc1`: the TGI with RPMI-8226 leukemia was more than 100 µM; with RXF 393 renal, more than 42 µM; in the assay on TK-10 renal it was more than 65.1 µM; with NCI-H23 lung, more than 40.2 µM; with LOX IMVI melanoma, more than 24.7 µM; in the assay on SF-268 CNS, more than 27.5 µM. Further, the TGI with HT29 colon is more than 27.1 µM; with M14 melanoma it was more than 28.1 µM; in the assay with A498 renal it was more than 100 µM; with OVCAR-3 ovarian it was 36.2 µM; in the assay on OVCAR-5 ovarian, more than 100 µM; in the assay with CCRF-CEM leukemia, more than 100 µM. In addition, the TGI in the assay on ACHN renal was more than 49.9 µM; with SNB-75 CNS it was 34.6 µM; with IGROV1 ovarian, more than 69.4 µM; with SR leukemia, more than 100 µM; with SN12C renal, more than 28.3 µM.

As for `CC1CC(=O)C(CC(=O)O)[C@H]1C(C(=O)C(=O)Nc1cc(Cl)ccc1Cl)[N+](=O)[O-]` (some centres not stated), the TGI in the assay with RPMI-8226 leukemia, in the assay with RXF 393 renal, with TK-10 renal, with LOX IMVI melanoma, with SF-268 CNS and in the assay on HT29 colon was more than 100 µM throughout. In addition, the TGI in the assay on A498 renal, in the assay with OVCAR-3 ovarian, in the assay with OVCAR-5 ovarian, in the assay on CCRF-CEM leukemia, in the assay with ACHN renal and in the assay with SNB-75 CNS was more than 100 µM throughout. Besides, the TGI in the assay on IGROV1 ovarian, with SR leukemia and in the assay with SN12C renal was more than 100 µM throughout.

In the case of `C[C@H](O)CCC(=O)c1ccoc1`, the TGI with RPMI-8226 leukemia, in the assay with RXF 393 renal, in the assay on TK-10 renal, with NCI-H23 lung, with LOX IMVI melanoma and in the assay with SF-268 CNS was more than 100 µM throughout. In addition, the TGI in the assay on HT29 colon, in the assay with M14 melanoma, with A498 renal, in the assay on OVCAR-3 ovarian, in the assay with OVCAR-5 ovarian and with CCRF-CEM leukemia was more than 100 µM throughout. Moreover, the TGI in the assay with ACHN renal, with SNB-75 CNS, with IGROV1 ovarian, with SR leukemia and in the assay with SN12C renal was more than 100 µM in each case.

For `O=c1ccn([C@@H]2C[C@H](CO)CS(=O)C2)c(=O)[nH]1` (some centres not stated), the TGI in the assay on RPMI-8226 leukemia, in the assay with TK-10 renal, in the assay on NCI-H23 lung, with LOX IMVI melanoma, in the assay with SF-268 CNS and in the assay with HT29 colon was more than 100 µM throughout. For the same compound, the TGI in the assay with M14 melanoma, in the assay on A498 renal, in the assay with OVCAR-3 ovarian, in the assay on CCRF-CEM leukemia, with ACHN renal and in the assay with SNB-75 CNS was more than 100 µM in each case. The TGI in the assay on IGROV1 ovarian and in the assay on SN12C renal was more than 100 µM in each case.

In the case of `N#CC(NNC(=O)c1ccccc1O)c1ccccc1O` (configuration not stated), the TGI with RPMI-8226 leukemia was more than 100 µM; in the assay on RXF 393 renal it was more than 100 µM; in the assay on TK-10 renal, more than 100 µM; with NCI-H23 lung it was more than 100 µM; with LOX IMVI melanoma, 97.3 µM; with SF-268 CNS it was more than 100 µM. Moreover, the TGI in the assay with HT29 colon is more than 100 µM; in the assay on M14 melanoma, 29.7 µM; in the assay on OVCAR-3 ovarian, more than 100 µM; in the assay with OVCAR-5 ovarian, more than 100 µM; in the assay on CCRF-CEM leukemia it was more than 100 µM; in the assay with ACHN renal, more than 100 µM. The TGI with SNB-75 CNS, with IGROV1 ovarian, with SR leukemia and in the assay on SN12C renal was more than 100 µM throughout.

As to `Cc1[nH]n(C(=O)Cc2ccccc2)c(=O)c1/C=C1\C(=O)C=Cc2ccccc21`, the TGI was more than 100 µM in the assay with RPMI-8226 leukemia; more than 100 µM in the assay on TK-10 renal; more than 100 µM in the assay with NCI-H23 lung; 93 µM in the assay on LOX IMVI melanoma; more than 100 µM with SF-268 CNS; more than 100 µM in the assay with HT29 colon. Also, the TGI with OVCAR-3 ovarian is more than 100 µM; with OVCAR-5 ovarian, more than 100 µM; in the assay with CCRF-CEM leukemia, 93.4 µM; in the assay on ACHN renal, more than 100 µM; in the assay with SNB-75 CNS it was more than 100 µM; with SR leukemia it was more than 100 µM. For the same compound, the TGI in the assay with SN12C renal is more than 100 µM.

On to `COC(=O)N1C=Cc2c(c(C)c3c([nH]c4ccccc43)c2C)C1C` (configuration not stated), for which the TGI stood at 38.2 µM in the assay with RPMI-8226 leukemia; 35.9 µM in the assay on TK-10 renal; 36.2 µM in the assay with NCI-H23 lung; 33.7 µM with LOX IMVI melanoma; 44.6 µM in the assay with SF-268 CNS; 26.5 µM in the assay with HT29 colon. Further, the TGI is 71.1 µM in the assay on M14 melanoma; 28.8 µM in the assay with A498 renal; 30.9 µM in the assay on OVCAR-3 ovarian; 34.5 µM in the assay with OVCAR-5 ovarian; 54.4 µM in the assay on CCRF-CEM leukemia; 47.8 µM with SNB-75 CNS. This compound yielded a TGI in the assay on IGROV1 ovarian of 48.7 µM.

In the case of `COc1cc(/C=C(\C#N)C(=O)c2ccccc2)cc(OC)c1OC`, the TGI in the assay with RPMI-8226 leukemia was more than 100 µM; in the assay on RXF 393 renal it was 96.8 µM; in the assay on TK-10 renal, more than 100 µM; in the assay with NCI-H23 lung, more than 100 µM; with LOX IMVI melanoma, more than 100 µM; with SF-268 CNS it was more than 100 µM. Also, the TGI in the assay with HT29 colon, in the assay on M14 melanoma, with OVCAR-3 ovarian, in the assay on OVCAR-5 ovarian, in the assay with CCRF-CEM leukemia and in the assay on ACHN renal was more than 100 µM each time. Further, the TGI with SNB-75 CNS, in the assay on SR leukemia and with SN12C renal was more than 100 µM each time.

With `CSc1cnc2ccccc2c1Sc1cn(C)c2ccccc2c1=O`, the TGI was more than 100 µM with RPMI-8226 leukemia; more than 100 µM in the assay with RXF 393 renal; more than 100 µM with TK-10 renal; 65.7 µM with NCI-H23 lung; more than 100 µM with LOX IMVI melanoma; more than 100 µM in the assay with SF-268 CNS. The TGI with HT29 colon is more than 100 µM; with M14 melanoma, more than 100 µM; in the assay with A498 renal it was more than 100 µM; with OVCAR-3 ovarian it was 95.5 µM; in the assay with OVCAR-5 ovarian it was more than 100 µM; in the assay with CCRF-CEM leukemia, more than 100 µM. For the same compound, the TGI in the assay on ACHN renal is more than 100 µM; in the assay with SNB-75 CNS it was 46.8 µM; in the assay with IGROV1 ovarian it was more than 100 µM; with SR leukemia it was more than 100 µM; with SN12C renal, more than 100 µM.
